From ChEMBL document CHEMBL1153779, “Tyrosinase-inhibitory constituents from the twigs of Cinnamomum cassia” (J Nat Prod, 2009)
pIC50: −log10 of the molar value.

Target: T1, Tyrosinase (Agaricus bisporus, UniProt O42713)
T1 sequence (O42713 whole entry): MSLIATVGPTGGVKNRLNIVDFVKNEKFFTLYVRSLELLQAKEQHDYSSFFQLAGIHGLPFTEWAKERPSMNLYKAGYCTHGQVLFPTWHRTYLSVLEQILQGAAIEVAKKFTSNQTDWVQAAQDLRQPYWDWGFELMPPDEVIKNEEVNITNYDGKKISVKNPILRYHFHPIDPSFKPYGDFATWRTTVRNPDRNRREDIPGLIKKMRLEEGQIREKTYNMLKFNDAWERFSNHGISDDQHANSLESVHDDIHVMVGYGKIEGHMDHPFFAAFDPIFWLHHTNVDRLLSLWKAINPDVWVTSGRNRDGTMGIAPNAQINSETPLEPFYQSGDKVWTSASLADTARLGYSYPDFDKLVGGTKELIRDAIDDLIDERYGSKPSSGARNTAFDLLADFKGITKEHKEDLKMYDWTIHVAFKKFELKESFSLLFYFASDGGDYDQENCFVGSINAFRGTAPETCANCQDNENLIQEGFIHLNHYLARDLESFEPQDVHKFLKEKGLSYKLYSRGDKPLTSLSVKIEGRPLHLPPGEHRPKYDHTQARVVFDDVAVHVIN
Description: Inhibition of mushroom tyrosinase after 10 mins by spectrophotometry

| SMILES | pIC50 |
| --- | --- |
| COc1c(O)cccc1/C=C/C=O | 3.59 |
| OC[C@H]1O[C@@H](OCCc2ccccc2)[C@H](O)[C@@H](O)[C@@H]1O[C@@H]1OC[C@](O)(CO)[C@H]1O | 3.15 |
| O=C/C=C/c1ccccc1 | 3.28 |
| COc1ccccc1/C=C/C=O | 3.38 |
| O=C/C=C/c1ccccc1O [2-HYDROXYCINNAMALDEHYDE] | 3.33 |
| C[C@@H]1O[C@@H](OC[C@H]2O[C@@H](Oc3ccccc3/C=C/CO)[C@H](O[C@@H]3[C@@H](OCc4ccccc4)O[C@@H](CO[C@@H]4OC[C@](O)(CO)[C@H]4O)[C@H](O)[C@H]3O)[C@@H](O)[C@@H]2O)[C@H](O)[C@H](O)[C@H]1O [CINNACASSINOL] | 3.03 |
| OC/C=C/c1ccccc1 [CINNAMIC ALCOHOL] | < 2.00 |
| COc1cc(/C=C/C=O)ccc1O [CONIFERYL ALDEHYDE] | 3.62 |
| O=C(CCc1ccccc1O)O[C@@H]1O[C@H](CO)[C@@H](O)[C@H](O)[C@H]1O [DIHYDROCINNACASSIDE] | 3.17 |
| O=C(O)CCc1ccccc1O[C@@H]1O[C@H](CO)[C@@H](O)[C@H](O)[C@H]1O [DIHYDROMELILOTOSIDE] | 3.24 |
| Oc1ccc(O)cc1 [HYDROQUINONE] | 2.38 |
| COC(=O)CCc1ccccc1O[C@@H]1O[C@H](CO)[C@@H](O)[C@H](O)[C@H]1O [METHYL DIHYDROMELILOTOSIDE] | 3.20 |
| O=C(O)/C=C/c1ccccc1O [O-COUMARIC ACID] | 3.17 |
| O[C@@H]1[C@@H](O)[C@@H](OC/C=C/c2ccccc2)O[C@H](CO[C@@H]2OC[C@H](O)[C@H](O)[C@H]2O)[C@H]1O [ROSAVIN] | < 2.00 |
